Experimental data: patent US8580965B2, “Substituted sulfonamide compounds” (Gruenenthal GmbH, priority 2006, dated 2013)
Structures can show the parent of a compound that is named as a salt.

What was measured:
[1] = target: T1, B1R receptor of the rat (bradykinin 1 receptor) (Rattus norvegicus, UniProt P97583); assay: FLIPR Ca2+ assay (Fluo-4) on CHO K1 cells stably transfected with the B1R gene of the rat; % activation and % inhibition at 10 μM; assay type: cell-based; conditions: CHO-K1, test substance 10 μM; CHO K1 rB1R cells; Ca2+ inflow after 100 nM Des-Arg9-bradykinin; read-out: B1R antagonism, rat [10 μM] % inhibition
T1 construct: host or cells: CHO K1 cells (rB1R cells)
T1 sequence (P97583 1-337): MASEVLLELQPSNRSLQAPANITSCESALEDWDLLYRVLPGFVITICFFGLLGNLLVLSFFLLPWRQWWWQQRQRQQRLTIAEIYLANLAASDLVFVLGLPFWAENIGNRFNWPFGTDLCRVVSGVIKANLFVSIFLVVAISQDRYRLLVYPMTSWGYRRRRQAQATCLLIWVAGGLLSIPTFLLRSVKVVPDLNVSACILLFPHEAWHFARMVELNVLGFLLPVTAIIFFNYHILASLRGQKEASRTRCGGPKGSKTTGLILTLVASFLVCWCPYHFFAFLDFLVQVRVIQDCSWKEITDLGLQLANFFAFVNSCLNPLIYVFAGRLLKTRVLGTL
Outline: (§1)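 CHO K1 cells stably expressing human or rat B1R, Fluo-4 loaded, read by FLIPR (peak fluorescence). Compound at 10 µM first gives % activation versus agonist; after 10 min, agonist (human: 0.5 nM Lys-Des-Arg9-bradykinin; rat: 100 nM Des-Arg9-bradykinin) gives % inhibition relative to maximal inhibition.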

[2] = target: T2, human B1R receptor (bradykinin 1 receptor) (Homo sapiens, UniProt P46663); assay: FLIPR Ca2+ assay (Fluo-4) on CHO K1 cells stably transfected with the human B1R gene; % activation and % inhibition at 10 μM; assay type: cell-based; conditions: CHO-K1, test substance 10 μM; CHO K1 hB1R cells; Ca2+ inflow after 0.5 nM Lys-Des-Arg9-bradykinin; read-out: B1R antagonism, human [10 μM] % inhibition
T2 construct: host or cells: CHO K1 cells (hB1R cells)
T2 sequence (P46663 1-353): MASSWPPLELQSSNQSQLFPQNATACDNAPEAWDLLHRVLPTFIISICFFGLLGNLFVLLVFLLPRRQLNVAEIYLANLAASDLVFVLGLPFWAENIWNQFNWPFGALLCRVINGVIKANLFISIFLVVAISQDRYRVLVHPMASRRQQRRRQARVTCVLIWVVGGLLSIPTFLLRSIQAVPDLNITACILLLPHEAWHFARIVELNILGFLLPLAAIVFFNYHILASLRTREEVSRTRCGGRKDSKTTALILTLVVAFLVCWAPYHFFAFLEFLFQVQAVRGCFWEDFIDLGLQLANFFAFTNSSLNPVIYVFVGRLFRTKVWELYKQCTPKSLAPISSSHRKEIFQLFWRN
Outline: as §1

| Structure (SMILES) | inhibition at 10 µM [1] | inhibition at 10 µM [2] |
| --- | --- | --- |
| O=C(COCC1Cc2ccccc2CN1S(=O)(=O)c1ccc(F)cc1)N1CCC(O)(Cc2ccccc2)CC1 (stereo not shown) [Example 75, 1-(4-benzyl-4-hydroxy-piperidin-1-yl)-2-[2-(4-fluoro-phenylsulfonyl)-1,2,3,4-tetrahydro-isoquinolin-3-ylmethoxy]-ethanone] | 19.2% | 11% |
| O=C(COCC1CCCN1S(=O)(=O)c1cc(Cl)sc1Cl)N1CCC(O)(c2ccc(Br)cc2)CC1 (stereo not shown) [Example 224, 1-(4-(4-bromophenyl)-4-hydroxypiperidin-1-yl)-2-((1-(2,5-dichlorothiophen-3-ylsulfonyl)pyrrolidin-2-yl)methoxy)ethanone] | 102% | 49.1% |
| O=C(COC1CCN(S(=O)(=O)c2c(Cl)cc(Cl)cc2Cl)C1)N1CCC(O)(Cc2ccccc2)CC1 (stereo not shown) [Example 109, 1-(4-benzyl-4-hydroxy-piperidin-1-yl)-2-[1-(2,4,6-trichloro-phenylsulfonyl)-pyrrolidin-3-yloxy]-ethanone] | 82.5% | 103% |
| COc1cc(C)c(S(=O)(=O)N(CCOCC(=O)N2CCC(O)(c3cccs3)CC2)CC2CC2)c(C)c1C [Example 268, N-(cyclopropylmethyl)-N-(2-(2-(4-hydroxy-4-(thiophen-2-yl)piperidin-1-yl)-2-oxoethoxy)ethyl)-4-methoxy-2,3,6-trimethylphenylsulfonamide] | 98.8% | 99.1% |
| Cc1cc(C)c(S(=O)(=O)N2CCCCC2COCC(=O)N2CCC(O)(c3ccc(Cl)cc3)CC2)c(C)c1 (stereo not shown) [Example 66, 1-(4-(4-chlorophenyl)-4-hydroxypiperidin-1-yl)-2-((1-(mesitylsulfonyl)piperidin-2-yl)methoxy)ethanone] | 99.2% | 84.5% |
| O=C(COCC1CCCCN1S(=O)(=O)c1c(Cl)cccc1Cl)N1CCC(O)(c2cccs2)CC1 (stereo not shown) [Example 270, 2-((1-(2,6-dichlorophenylsulfonyl)piperidin-2-yl)methoxy)-1-(4-hydroxy-4-(thiophen-2-yl)piperidin-1-yl)ethanone] | 99.7% | 93.9% |
| O=C(COCC1CCCCN1S(=O)(=O)c1ccccc1C(F)(F)F)N1CCC(O)(c2ccc(Br)cc2)CC1 (stereo not shown) [Example 174, 1-(4-(4-bromophenyl)-4-hydroxypiperidin-1-yl)-2-((1-(2-(trifluoromethyl)phenylsulfonyl)piperidin-2-yl)methoxy)ethanone] | 105% | 102% |
| CN(CCOCC(=O)N1CCC(O)(c2ccc(Cl)cc2)CC1)S(=O)(=O)c1cc(Cl)sc1Cl [Example 260, 2,5-dichloro-N-(2-(2-(4-(4-chlorophenyl)-4-hydroxypiperidin-1-yl)-2-oxoethoxy)ethyl)-N-methylthiophene-3-sulfonamide] | 91.1% | 73.1% |
| COc1cc(C)c(S(=O)(=O)N(C)CCOCC(=O)N2CCC(O)(Cc3ccncc3)CC2)c(C)c1 [Example 280, N-(2-(2-(4-hydroxy-4-(pyridin-4-ylmethyl)piperidin-1-yl)-2-oxoethoxy)ethyl)-4-methoxy-N,2,6-trimethylphenylsulfonamide] | 100% | 100% |
| O=C(COCC1CCCN(S(=O)(=O)c2c(Cl)cc(Cl)cc2Cl)C1)N1CCC(O)(c2ccc(Cl)cc2)CC1 (stereo not shown) [Example 254, 1-(4-(4-chlorophenyl)-4-hydroxypiperidin-1-yl)-2-((1-(2,4,6-trichlorophenylsulfonyl)piperidin-3-yl)methoxy)ethanone] | 36.8% | 62.5% |
| COc1cc(C)c(S(=O)(=O)N2CCC(COCC(=O)N3CCC(O)(c4ccc(Br)cc4)CC3)C2)c(C)c1 (stereo not shown) [Example 230, 1-(4-(4-bromophenyl)-4-hydroxypiperidin-1-yl)-2-((1-(4-methoxy-2,6-dimethylphenylsulfonyl)pyrrolidin-3-yl)methoxy)ethanone] | 100% | 100% |
| O=C(COC1CCCN(S(=O)(=O)c2ccccc2)C1)N1CCC(O)(c2ccccn2)CC1 (stereo not shown) [Example 51, 2-(1-phenylsulfonyl-piperidin-3-yloxy)-1-(4′-hydroxy-3′,4′,5′,6′-tetrahydro-2′H-[2,4′]bipyridinyl-1′-yl)-ethanone] | 10.8% | -9.71% |
| Cc1ccc(S(=O)(=O)N2CCCCC2COCC(=O)N2CCC(O)(c3cccnc3)CC2)cc1Cl (stereo not shown) [Example 161, 2-((1-(3-chloro-4-methylphenylsulfonyl)piperidin-2-yl)methoxy)-1-(4-hydroxy-4-(pyridin-3-yl)piperidin-1-yl)ethanone] | 80.8% | 78.5% |
| O=C(COCC1Cc2ccccc2CN1S(=O)(=O)c1ccc(Cl)cc1Cl)N1CCC(O)(c2cccnc2)CC1 (stereo not shown) [Example 131, 2-((2-(2,4-dichlorophenylsulfonyl)-1,2,3,4-tetrahydroisoquinolin-3-yl)methoxy)-1-(4-hydroxy-4-(pyridin-3-yl)piperidin-1-yl)ethanone hydrochloride] | 100% | 102% |
| Cc1ccc(F)cc1S(=O)(=O)N(C)CCOCC(=O)N1CCC(O)(c2ccc(Cl)cc2)CC1 [Example 61, N-(2-(2-(4-(4-chlorophenyl)-4-hydroxypiperidin-1-yl)-2-oxoethoxy)ethyl)-5-fluoro-N,2-dimethylphenylsulfonamide] | 86.4% | 56.2% |
| COc1cc(C)c(S(=O)(=O)N(CCOCC(=O)N2CCC(O)(c3ccc(Br)cc3)CC2)CC(C)C)c(C)c1C [Example 210, N-(2-(2-(4-(4-bromophenyl)-4-hydroxypiperidin-1-yl)-2-oxoethoxy)ethyl)-N-isobutyl-4-methoxy-2,3,6-trimethylphenylsulfonamide] | 101% | 105% |
| O=C(COC1CCN(S(=O)(=O)c2c(Cl)cc(Cl)cc2Cl)C1)N1CCC(O)(c2ccccn2)CC1 (stereo not shown) [Example 98, 1-(4′-hydroxy-3′,4′,5′,6′-tetrahydro-2′H-[2,4′]bipyridinyl-1′-yl)-2-[1-(2,4,6-trichloro-phenylsulfonyl)-pyrrolidin-3-yloxy]-ethanone] | 31.9% | 29.1% |
| Cc1cc(C)c(S(=O)(=O)N2CCCCC2COCC(=O)N2CCC(O)(c3cccnc3)CC2)c(C)c1 (stereo not shown) [Example 68, 1-(4′-hydroxy-3′,4′,5′,6′-tetrahydro-2′H-[3,4′]bipyridinyl-1′-yl)-2-[1-(2,4,6-trimethyl-phenylsulfonyl)-piperidin-2-ylmethoxy]-ethanone] | 79% | 74.9% |
| O=C(COCC1CCCN1S(=O)(=O)c1c(Cl)cc(C(F)(F)F)cc1Cl)N1CCC(O)(c2ccc(Br)cc2)CC1 (stereo not shown) [Example 167, 1-(4-(4-bromophenyl)-4-hydroxypiperidin-1-yl)-2-((1-(2,6-dichloro-4-(trifluoromethyl)phenylsulfonyl)pyrrolidin-2-yl)methoxy)ethanone] | 104% | 41.5% |
| COc1cc(C)c(S(=O)(=O)N(CCOCC(=O)N2CCC(O)(Cc3ccccc3)CC2)CC(C)C)c(C)c1C [Example 211, N-(2-(2-(4-benzyl-4-hydroxypiperidin-1-yl)-2-oxoethoxy)ethyl)-N-isobutyl-4-methoxy-2,3,6-trimethylphenylsulfonamide] | 100% | 99.6% |
